ChEMBL document CHEMBL4024706 (Eur J Med Chem, 2017)

Experiments:
[1] = target: Dual specificity protein kinase CLK1 (Homo sapiens) (UniProt P49759); assay: Inhibition of wild-type human full length CLK1 (M1 to I484 residues) expressed in bacterial expression system assessed as residual activity at 1 uM by Kinomescan method relative to control
[2] = target: Proto-oncogene tyrosine-protein kinase ROS (Homo sapiens) (UniProt P08922); assay: Inhibition of wild-type human partial length ROS1 (A1921 to N2240 residues) expressed in bacterial expression system assessed as residual activity at 1 uM by Kinomescan method relative to control
[3] = test system: U2932; assay: Induction of apoptosis in human U2932 cells assessed as induction of caspase-3 cleavage after 48 hrs by immunoblot; format: functional, cell-based
[4] = target: Mitogen-activated protein kinase kinase kinase kinase 2 (Homo sapiens) (UniProt Q12851); assay: Inhibition of wild-type human partial length MAP4K2 (M1 to G318 residues) expressed in mammalian expression system assessed as residual activity at 1 uM by Kinomescan method relative to control
[5] = target: Interferon-induced, double-stranded RNA-activated protein kinase (Homo sapiens) (UniProt P19525); assay: Inhibition of wild-type human partial length PRKR (F247 to C551 residues) expressed in bacterial expression system assessed as residual activity at 1 uM by Kinomescan method relative to control
[6] = test system: ALK tyrosine kinase receptor (Homo sapiens), Q9UM73 [L1196M]; assay: Inhibition of […] human partial length ALK L1196M mutant (I1088 to E1409 residues) expressed in mammalian expression system assessed as residual activity at 1 uM by Kinomescan method relative to control
[7] = target: Mitogen-activated protein kinase kinase kinase kinase 4 (Homo sapiens) (UniProt O95819); assay: Inhibition of wild-type human partial length MAP4K4 (M1 to R310 residues) expressed in bacterial expression system assessed as residual activity at 1 uM by Kinomescan method relative to control
[8] = target: Mitogen-activated protein kinase kinase kinase 6 (Homo sapiens) (UniProt O95382); assay: Inhibition of wild-type human partial length ASK2 (M278 to R972 residues) expressed in mammalian expression system assessed as residual activity at 1 uM by Kinomescan method relative to control
[9] = target: Cyclin-dependent kinase 11A (Homo sapiens) (UniProt Q9UQ88); assay: Inhibition of wild-type human partial length CDC2L2 (D391 to K730 residues) expressed in bacterial expression system assessed as residual activity at 1 uM by Kinomescan method relative to control
[10] = target: Calcium/calmodulin-dependent protein kinase type II subunit alpha (Homo sapiens) (UniProt Q9UQM7); assay: Inhibition of wild-type human partial length CAMK2A (M1 to K328 residues) expressed in bacterial expression system assessed as residual activity at 1 uM by Kinomescan method relative to control
[11] = target: High affinity nerve growth factor receptor (Homo sapiens) (UniProt P04629); assay: Inhibition of wild-type human partial length TRKA (G475 to G790 residues) expressed in mammalian expression system assessed as residual activity at 1 uM by Kinomescan method relative to control
[12] = target: Discoidin domain-containing receptor 2 (Homo sapiens) (UniProt Q16832); assay: Inhibition of wild-type human partial length DDR2 (V555 to E855 residues) expressed in mammalian expression system assessed as residual activity at 1 uM by Kinomescan method relative to control
[13] = target: MAP kinase-interacting serine/threonine-protein kinase 2 (Homo sapiens) (UniProt Q9HBH9); assay: Inhibition of wild-type human partial length MKNK2 (G63 to S388 residues) expressed in mammalian expression system assessed as residual activity at 1 uM by Kinomescan method relative to control
[14] = target: Phosphatidylinositol 4,5-bisphosphate 3-kinase catalytic subunit beta isoform (Homo sapiens) (UniProt P42338); assay: Inhibition of wild-type human partial length PIK3CB (P118 to S1070 residues) expressed in mammalian expression system assessed as residual activity at 1 uM by Kinomescan method relative to control
[15] = target: Serine/threonine-protein kinase SIK3 (Homo sapiens) (UniProt Q9Y2K2); assay: Inhibition of wild-type human partial length QSK (A90 to L395 residues) expressed in mammalian expression system assessed as residual activity at 1 uM by Kinomescan method relative to control
[16] = target: Dual specificity mitogen-activated protein kinase kinase 2 (Homo sapiens) (UniProt P36507); assay: Inhibition of wild-type human full length MEK2 (M1 to V400 residues) expressed in mammalian expression system assessed as residual activity at 1 uM by Kinomescan method relative to control
[17] = target: Serine/threonine-protein kinase PLK4 (Homo sapiens) (UniProt O00444); assay: Inhibition of wild-type human partial length PLK4 (M1 to S273 residues) expressed in mammalian expression system assessed as residual activity at 1 uM by Kinomescan method relative to control
[18] = test system: Receptor-type tyrosine-protein kinase FLT3 (Homo sapiens), P36888 [D835Y]; assay: Inhibition of human partial length FLT3 D835Y mutant (Q580 to Y969 residues) expressed in bacterial expression system assessed as residual activity at 1 uM by Kinomescan method relative to control
[19] = target: Mitotic checkpoint serine/threonine-protein kinase BUB1 (Homo sapiens) (UniProt O43683); assay: Inhibition of wild-type human partial length BUB1 (Q724 to K1085 residues) expressed in mammalian expression system assessed as residual activity at 1 uM by Kinomescan method relative to control
[20] = target: Receptor tyrosine-protein kinase erbB-3 (Homo sapiens) (UniProt P21860); assay: Inhibition of wild-type human partial length ERBB3 (G684 to A987 residues) expressed in mammalian expression system assessed as residual activity at 1 uM by Kinomescan method relative to control
[21] = target: Ephrin type-A receptor 2 (Homo sapiens) (UniProt P29317); assay: Inhibition of wild-type human partial length EPHA2 (T593 to V891 residues) expressed in bacterial expression system assessed as residual activity at 1 uM by Kinomescan method relative to control
[22] = target: Protein-tyrosine kinase 6 (Homo sapiens) (UniProt Q13882); assay: Inhibition of wild-type human partial length BRK (L166 to T451 residues) expressed in bacterial expression system assessed as residual activity at 1 uM by Kinomescan method relative to control
[23] = target: Atypical kinase COQ8A, mitochondrial (Homo sapiens) (UniProt Q8NI60); assay: Inhibition of wild-type human […] ADCK3 (M280 to Q647 residues) expressed in bacterial expression system assessed as residual activity at 1 uM by Kinomescan method relative to control
[24] = target: Phosphatidylinositol 5-phosphate 4-kinase type-2 beta (Homo sapiens) (UniProt P78356); assay: Inhibition of wild-type human full length PIP5K2B (M1 to T416 residues) expressed in bacterial expression system assessed as residual activity at 1 uM by Kinomescan method relative to control
[25] = target: Ribosomal protein S6 kinase alpha-1 (Homo sapiens) (UniProt Q15418); assay: Inhibition of wild-type human partial length C-terminal RSK1 kinase domain 2 (P360 to L681 residues) expressed in bacterial expression system assessed as residual activity at 1 uM by Kinomescan method relative to control

Sequence of Atypical kinase COQ8A, mitochondrial (Homo sapiens) (Q8NI60 163-647 limits assumed): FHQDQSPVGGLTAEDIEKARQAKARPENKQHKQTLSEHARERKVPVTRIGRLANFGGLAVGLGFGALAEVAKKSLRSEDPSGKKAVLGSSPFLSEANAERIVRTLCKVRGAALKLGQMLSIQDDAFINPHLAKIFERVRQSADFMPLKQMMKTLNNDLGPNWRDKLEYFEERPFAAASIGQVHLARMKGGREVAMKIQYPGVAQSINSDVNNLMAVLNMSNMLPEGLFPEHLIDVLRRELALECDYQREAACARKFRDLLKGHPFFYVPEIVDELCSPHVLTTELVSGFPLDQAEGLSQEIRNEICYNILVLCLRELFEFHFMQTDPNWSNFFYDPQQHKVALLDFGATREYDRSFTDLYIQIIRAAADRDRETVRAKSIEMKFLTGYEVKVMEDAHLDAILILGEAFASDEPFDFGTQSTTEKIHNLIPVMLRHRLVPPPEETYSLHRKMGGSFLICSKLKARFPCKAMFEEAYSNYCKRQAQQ
Sequence of Cyclin-dependent kinase 11A (Homo sapiens) (Q9UQ88 whole entry, the tested form may be a part): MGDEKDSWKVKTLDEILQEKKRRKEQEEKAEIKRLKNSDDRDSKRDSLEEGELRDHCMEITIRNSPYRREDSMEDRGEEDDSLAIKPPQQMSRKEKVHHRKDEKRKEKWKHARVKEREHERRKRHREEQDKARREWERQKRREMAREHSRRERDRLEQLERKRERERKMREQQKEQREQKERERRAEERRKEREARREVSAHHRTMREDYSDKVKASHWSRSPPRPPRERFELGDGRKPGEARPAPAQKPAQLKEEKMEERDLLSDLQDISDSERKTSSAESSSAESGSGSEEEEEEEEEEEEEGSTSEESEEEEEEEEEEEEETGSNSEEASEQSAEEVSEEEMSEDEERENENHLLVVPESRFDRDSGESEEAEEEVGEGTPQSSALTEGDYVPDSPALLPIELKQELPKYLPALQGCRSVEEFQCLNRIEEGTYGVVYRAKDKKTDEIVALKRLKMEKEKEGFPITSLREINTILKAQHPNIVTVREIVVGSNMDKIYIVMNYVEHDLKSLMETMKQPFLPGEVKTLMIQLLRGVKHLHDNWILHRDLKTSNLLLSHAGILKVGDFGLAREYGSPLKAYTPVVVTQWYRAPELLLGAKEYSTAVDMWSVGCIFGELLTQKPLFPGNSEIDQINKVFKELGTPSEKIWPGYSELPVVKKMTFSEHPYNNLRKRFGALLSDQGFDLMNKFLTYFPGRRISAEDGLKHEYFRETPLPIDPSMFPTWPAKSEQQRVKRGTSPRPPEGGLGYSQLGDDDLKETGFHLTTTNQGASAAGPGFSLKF
Sequence of Serine/threonine-protein kinase SIK3 (Homo sapiens) (Q9Y2K2 whole entry, looked up, the tested form may be a part): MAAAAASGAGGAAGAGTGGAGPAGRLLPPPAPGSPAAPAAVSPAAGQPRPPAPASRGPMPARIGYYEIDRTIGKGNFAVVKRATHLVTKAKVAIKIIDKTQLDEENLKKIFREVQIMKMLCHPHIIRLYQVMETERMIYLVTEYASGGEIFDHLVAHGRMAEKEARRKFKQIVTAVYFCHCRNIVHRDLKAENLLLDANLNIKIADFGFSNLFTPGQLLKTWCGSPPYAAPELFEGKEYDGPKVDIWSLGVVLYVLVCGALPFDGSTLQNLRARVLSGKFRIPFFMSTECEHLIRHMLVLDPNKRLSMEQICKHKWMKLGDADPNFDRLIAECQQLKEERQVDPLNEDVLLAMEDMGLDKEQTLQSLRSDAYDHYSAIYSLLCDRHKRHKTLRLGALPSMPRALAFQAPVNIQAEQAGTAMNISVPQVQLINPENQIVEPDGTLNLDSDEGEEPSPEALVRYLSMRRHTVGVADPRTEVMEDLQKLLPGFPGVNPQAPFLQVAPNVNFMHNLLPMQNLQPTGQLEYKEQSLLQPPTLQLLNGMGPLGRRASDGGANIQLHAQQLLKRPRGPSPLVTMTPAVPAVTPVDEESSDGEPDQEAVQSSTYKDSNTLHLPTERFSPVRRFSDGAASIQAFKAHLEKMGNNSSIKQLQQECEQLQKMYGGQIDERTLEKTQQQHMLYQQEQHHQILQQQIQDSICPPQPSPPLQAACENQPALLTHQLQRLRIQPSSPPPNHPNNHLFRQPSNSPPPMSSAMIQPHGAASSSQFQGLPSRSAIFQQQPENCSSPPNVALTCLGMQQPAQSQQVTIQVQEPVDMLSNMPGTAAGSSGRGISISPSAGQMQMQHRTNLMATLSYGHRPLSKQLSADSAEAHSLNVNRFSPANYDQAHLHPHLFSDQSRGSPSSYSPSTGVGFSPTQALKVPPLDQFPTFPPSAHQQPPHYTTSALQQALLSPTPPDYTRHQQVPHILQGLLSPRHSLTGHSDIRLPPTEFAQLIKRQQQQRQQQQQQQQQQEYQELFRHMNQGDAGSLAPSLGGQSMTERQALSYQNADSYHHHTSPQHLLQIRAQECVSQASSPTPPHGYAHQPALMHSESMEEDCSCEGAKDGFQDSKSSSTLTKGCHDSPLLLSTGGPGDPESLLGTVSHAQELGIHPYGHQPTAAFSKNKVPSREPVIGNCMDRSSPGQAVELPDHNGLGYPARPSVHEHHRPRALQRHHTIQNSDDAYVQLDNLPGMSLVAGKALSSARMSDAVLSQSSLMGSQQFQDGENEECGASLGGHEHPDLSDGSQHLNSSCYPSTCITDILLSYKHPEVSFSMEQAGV
Sequence of Protein-tyrosine kinase 6 (Homo sapiens) (Q13882 whole entry, looked up, the tested form may be a part): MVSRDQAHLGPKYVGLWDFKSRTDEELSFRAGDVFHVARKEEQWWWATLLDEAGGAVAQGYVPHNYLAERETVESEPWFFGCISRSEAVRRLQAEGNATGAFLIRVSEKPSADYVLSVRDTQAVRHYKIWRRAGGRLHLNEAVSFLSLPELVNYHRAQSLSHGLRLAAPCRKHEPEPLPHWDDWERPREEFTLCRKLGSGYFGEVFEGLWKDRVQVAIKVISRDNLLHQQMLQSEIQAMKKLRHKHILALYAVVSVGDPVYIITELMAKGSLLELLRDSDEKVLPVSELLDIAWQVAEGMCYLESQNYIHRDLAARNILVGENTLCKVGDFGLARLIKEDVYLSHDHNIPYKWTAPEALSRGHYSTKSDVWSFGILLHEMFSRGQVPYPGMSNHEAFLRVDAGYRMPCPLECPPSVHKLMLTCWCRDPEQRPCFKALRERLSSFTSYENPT
Sequence of Dual specificity protein kinase CLK1 (Homo sapiens) (P49759 whole entry, looked up, the tested form may be a part): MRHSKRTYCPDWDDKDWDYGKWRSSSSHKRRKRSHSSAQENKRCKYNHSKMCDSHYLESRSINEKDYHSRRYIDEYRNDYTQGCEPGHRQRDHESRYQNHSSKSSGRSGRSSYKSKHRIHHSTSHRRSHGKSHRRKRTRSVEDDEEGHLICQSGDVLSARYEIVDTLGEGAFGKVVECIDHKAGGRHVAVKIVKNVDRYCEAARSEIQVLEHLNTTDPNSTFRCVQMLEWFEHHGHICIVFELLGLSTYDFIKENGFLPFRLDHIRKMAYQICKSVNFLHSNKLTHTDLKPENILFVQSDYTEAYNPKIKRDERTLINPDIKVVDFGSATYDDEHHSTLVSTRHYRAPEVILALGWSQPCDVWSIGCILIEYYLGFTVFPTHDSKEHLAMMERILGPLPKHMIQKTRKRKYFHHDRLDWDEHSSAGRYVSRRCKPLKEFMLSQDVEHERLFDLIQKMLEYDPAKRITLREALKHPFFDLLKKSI
Sequence of MAP kinase-interacting serine/threonine-protein kinase 2 (Homo sapiens) (Q9HBH9 whole entry, looked up, the tested form may be a part, canonical isoform): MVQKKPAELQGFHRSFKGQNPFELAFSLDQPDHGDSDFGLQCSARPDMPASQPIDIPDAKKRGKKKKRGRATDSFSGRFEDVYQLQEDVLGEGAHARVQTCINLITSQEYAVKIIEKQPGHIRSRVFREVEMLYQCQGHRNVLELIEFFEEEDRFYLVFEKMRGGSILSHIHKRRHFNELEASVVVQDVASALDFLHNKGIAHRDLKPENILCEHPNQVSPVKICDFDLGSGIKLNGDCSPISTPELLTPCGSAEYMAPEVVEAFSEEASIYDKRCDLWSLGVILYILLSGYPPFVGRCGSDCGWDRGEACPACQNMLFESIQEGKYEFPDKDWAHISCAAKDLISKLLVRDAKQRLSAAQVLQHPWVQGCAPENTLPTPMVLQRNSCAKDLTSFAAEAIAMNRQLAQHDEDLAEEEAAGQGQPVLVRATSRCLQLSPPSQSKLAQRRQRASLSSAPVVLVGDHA
Sequence of Mitogen-activated protein kinase kinase kinase kinase 2 (Homo sapiens) (Q12851 whole entry, the tested form may be a part): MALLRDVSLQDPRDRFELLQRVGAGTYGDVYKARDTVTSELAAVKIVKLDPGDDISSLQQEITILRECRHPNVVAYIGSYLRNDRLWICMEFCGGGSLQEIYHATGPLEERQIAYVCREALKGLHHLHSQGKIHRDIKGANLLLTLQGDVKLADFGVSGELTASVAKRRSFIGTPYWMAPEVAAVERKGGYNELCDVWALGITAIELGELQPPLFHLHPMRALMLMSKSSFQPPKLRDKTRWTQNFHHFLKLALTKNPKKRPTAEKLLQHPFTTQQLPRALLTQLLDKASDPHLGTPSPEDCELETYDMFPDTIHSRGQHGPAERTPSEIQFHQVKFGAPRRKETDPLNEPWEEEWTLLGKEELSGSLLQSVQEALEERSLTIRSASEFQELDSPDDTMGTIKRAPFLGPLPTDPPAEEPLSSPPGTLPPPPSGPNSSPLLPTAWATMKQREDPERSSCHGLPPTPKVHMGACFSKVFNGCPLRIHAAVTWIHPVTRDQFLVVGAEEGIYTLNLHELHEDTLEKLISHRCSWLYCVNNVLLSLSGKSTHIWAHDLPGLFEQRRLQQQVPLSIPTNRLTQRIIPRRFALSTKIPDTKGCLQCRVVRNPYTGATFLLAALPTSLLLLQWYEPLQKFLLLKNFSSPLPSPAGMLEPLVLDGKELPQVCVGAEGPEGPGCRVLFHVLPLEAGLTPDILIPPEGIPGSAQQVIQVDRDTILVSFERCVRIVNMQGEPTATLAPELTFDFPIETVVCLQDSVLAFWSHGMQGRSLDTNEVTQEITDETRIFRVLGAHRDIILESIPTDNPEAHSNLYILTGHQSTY

C=CC(=O)Nc1cc(Nc2cc(-c3cccc(NC(=O)c4ccc(C(C)(C)C)cc4)c3C)cn(C)c2=O)ccc1C(=O)N1CCOCC1
Activity [1]: 97% | Activity [2]: 100% | Activity [3]: Dose-dependent effect | Activity [4]: 94% | Activity [5]: 100% | Activity [6]: 96% | Activity [7]: 86% | Activity [8]: 95% | Activity [9]: 94% | Activity [10]: 100% | Activity [11]: 91% | Activity [12]: 93% | Activity [13]: 89% | Activity [14]: 100% | Activity [15]: 78% | Activity [16]: 100% | Activity [17]: 99% | Activity [18]: 97% | Activity [19]: 100% | Activity [20]: 88% | Activity [21]: 87% | Activity [22]: 96% | Activity [23]: 79% | Activity [24]: 82% | Activity [25]: 100%
